Experimental data: US7132425B2, “5-substituted-six-membered heteroaromatic glucokinase activators” (Hoffmann-La Roche Inc., priority 2002, dated 2006)

system: C57BL/6J mice; assay: Glucokinase activator in vivo screen (blood glucose after oral dosing); settings: oral gavage 50 mg/kg after two hour fast, readings 1, 2, 4 and 6 hours post dose, p≦0.05 for two consecutive assay time points
Procedure: Glucokinase Activator in vivo Screen Protocol: C57BL/6J mice are orally dosed via gavage with Glucokinase (GK) activator at 50 mg/kg body weight following a two hour fasting period. Blood glucose determinations are made five times during the six hour post-dose study period.
Mice (n=6) are weighed and fasted for a two hour period prior to oral treatment.

| SMILES | decrease in blood glucose compared to vehicle |
| --- | --- |
| CS(=O)(=O)c1ccc([C@@H](CC2CCCC2)C(=O)Nc2ccc(C3CCCO3)cn2)cc1Cl (stereo partly drawn) [Example 69, 2(R)-(3-Chloro-4-methanesulfonyl-phenyl)-3-cyclopentyl-N-[5-(tetrahydro-furan-2-yl)-pyridin-2-yl]-propionamide] | statistically significant (p≦0.05) decrease in blood glucose |
| COCC#Cc1cnc(NC(=O)[C@H](CC2CCCC2)c2ccc(S(C)(=O)=O)c(Cl)c2)cn1 [Example 47, 2(R)-(3-Chloro-4-methanesulfonyl-phenyl)-3-cyclopentyl-N-[5-(3-methoxy-prop-1-ynyl)-pyrazin-2-yl]-propionamide] | statistically significant (p≦0.05) decrease in blood glucose |
| CS(=O)(=O)c1ccc([C@@H](CC2CCCC2)C(=O)Nc2cnc(OCCO)cn2)cc1Cl [Example 62, 2(R)-(3-Chloro-4-methanesulfonyl-phenyl)-3-cyclopentyl-N-[5-(2-hydroxy-ethoxy)-pyrazin-2-yl]-propionamide] | statistically significant (p≦0.05) decrease in blood glucose |
| CN(C)CC#Cc1cnc(NC(=O)[C@H](CC2CCCC2)c2ccc(S(C)(=O)=O)c(Cl)c2)cn1 [Example 11, 2(R)-(3-Chloro-4-methanesulfonyl-phenyl)-3-cyclopentyl-N-[5-(3-dimethylamino-prop-1-ynyl)-pyrazin-2-yl]-propionamide] | statistically significant (p≦0.05) decrease in blood glucose |
| CS(=O)(=O)c1ccc([C@@H](CC2CCCC2)C(=O)Nc2cnc([C@@H](O)CO)cn2)cc1Cl [Example 55] | statistically significant (p≦0.05) decrease in blood glucose |
| C/C(=N/O)c1cnc(NC(=O)[C@H](CC2CCCC2)c2ccc(S(C)(=O)=O)c(Cl)c2)cn1 [Example 28, 2(R)-(3-Chloro-4-methanesulfonyl-phenyl)-3-cyclopentyl-N-[5-(1-(Z)-hydroxyimino-ethyl)-pyrazin-2-yl]-propionamide] | statistically significant (p≦0.05) decrease in blood glucose |
| COCCOc1cnc(NC(=O)[C@H](CC2CCCC2)c2ccc(S(C)(=O)=O)c(Cl)c2)cn1 [Example 43, 2(R)-(3-Chloro-4-methanesulfonyl-phenyl)-3-cyclopentyl-N-5-(2-methoxyethoxy-pyrazin-2-yl)-propionamide] | statistically significant (p≦0.05) decrease in blood glucose |
| CS(=O)(=O)c1ccc(C(CC2CCCC2)C(=O)Nc2cnc(CC3SC(=O)NC3=O)cn2)cc1Cl (centres unmarked) [Example 19, 2-(3-Chloro-4-methanesulfonyl-phenyl)-3-cyclopentyl-N-[5-(2,4-dioxo-thiazolidin-5-ylmethyl)-pyrazin-2-yl]-propionamide] | statistically significant (p≦0.05) decrease in blood glucose |
| CC(=O)c1cnc(NC(=O)C(CC2CCCC2)c2ccc(S(C)(=O)=O)c(Cl)c2)cn1 (centres unmarked) [Example 23, N-(5-Acetyl-pyrazin-2-yl)-2-(3-chloro-4-methanesulfonyl-phenyl)-3-cyclopentyl-propionamide] | statistically significant (p≦0.05) decrease in blood glucose |
| CS(=O)(=O)c1ccc([C@@H](CC2CCCC2)C(=O)Nc2cnc(CCC3(O)CCOCC3)cn2)cc1Cl [Example 51, 2(R)-(3-Chloro-4-methanesulfonyl-phenyl)-3-cyclopentyl-N-[5-(4-hydroxy-tetrahydropyran-4-yl-ethyl)-pyrazin-2-yl]-propionamide] | statistically significant (p≦0.05) decrease in blood glucose |
| CS(=O)(=O)c1ccc(C(CC2CCCC2)C(=O)Nc2cnc(C=O)cn2)cc1Cl (centres unmarked) [Example 18, 2-(3-Chloro-4-methanesulfonyl-phenyl)-3-cyclopentyl-N-(5-formyl-pyrazin-2-yl)-propionamide] | statistically significant (p≦0.05) decrease in blood glucose |
